Laboratory results from article PMC6491934 (Frontiers in Microbiology, 2019).
Read-outs that look alike come from different tables or passages of the source.

Columns and labels:
PrtP [1] = experiment: culture of Lactococcus lactis subsp. lactis BGMN1-501 in chemically defined growth medium (CDM) with addition of 0.5% casitone; cell-free supernatant; conditions: Lactococcus lactis subsp. lactis BGMN1-501, 30°C, up to 16 h
PrtP [2] = experiment: proteinase extract of BGMN1-501 cells in 0.1 mol/L sodium phosphate buffer (NaPi, pH 7); conditions: Lactococcus lactis subsp. lactis BGMN1-501, up to 20 h
BGMN1-596 = experiment: Glucose-uptake inhibition assay (growth of BGMN1-596 in GM17); assay type: cell-based, Lactococcus lactis subsp. lactis; conditions: chemically synthetized LcnB^∗, 0–1,000 μg/mL (highest concentration), BGMN1-596 5% inoculum in GM17, OD 600 nm over 6 h, triplicate
Method: To test whether truncated peptide can interfere with glucose import, growth of BGMN1-596 in GM17 with added LcnB^∗ was monitored. Fresh overnight culture, grown in GM17, was inoculated at 5% to fresh media, and saturated with increased concentrations (0–1,000 μg/mL) of chemically synthetized LcnB^∗. As a control, the same inoculum was made in media without glucose. Bacterial growth was monitored in microtitar plates by OD measurement at 600 nm at different time points for 6h. The assay was done in triplicate.

proteinase PrtP [3] = assay type: in vitro ADME, Lactococcus lactis subsp. lactis BGMN1-501
Method: Bacteriocin activity of BGMN1-501, as well as of recombinantly produced bacteriocin was evaluated by an agar-well diffusion test ([Lozo et al., 2004]). The activity of HPLC-obtained fractions and of chemically synthesized bacteriocin was evaluated by spot-on-lawn assays. Soft GM17 agar (0.75%, w/v) containing sensitive strain was overlaid onto thin GM17 agar plates. After soft agar solidified, 10 μL of sample was spotted and plates were incubated at 30°C overnight. Clear zones of growth inhibition in the spots were used as positive signals. Lactococcus lactis subsp. lactis BGMN1-596 was used in all tests as sensitive strain. Proteinase extract was prepared as following: BGMN1-501 was grown on milk citrate agar plates, collected and re-suspended in 0.1 mol/L sodium phosphate buffer (NaPi, pH 7), incubated at room temperature for 30 min, pelleted by centrifugation and supernatants were collected prior to reactions. In vitro testing of effect of proteinase extract on bacteriocin activity was done as previously described ([Vukotic et al., 2015]), except that recombinant bacteriocins were used as substrates in the reactions.

[4] = tested on: Lactococcus lactis subsp. lactis BGMN1-596; experiment: Spot-on-lawn bacteriocin activity assay; assay type: cell-based; conditions: sensitive strain BGMN1-596, 30°C overnight
Method: The activity of HPLC-obtained fractions and of chemically synthesized bacteriocin was evaluated by spot-on-lawn assays. Soft GM17 agar (0.75%, w/v) containing sensitive strain was overlaid onto thin GM17 agar plates. After soft agar solidified, 10 μL of sample was spotted and plates were incubated at 30°C overnight. Clear zones of growth inhibition in the spots were used as positive signals. Lactococcus lactis subsp. lactis BGMN1-596 was used in all tests as sensitive strain.

proteinase PrtP [5] = assay type: in vitro ADME, Lactococcus lactis subsp. lactis BGMN1-501; remark: listed apart in the source
Method: For the purification and mass spectrometric analysis of the bacteriocin in Lactococcus lactis subsp. lactis BGMN1-501, the strain was grown at 30°C for 16 h in 500 mL of chemically defined growth medium (CDM)with addition of 0.5% casitone (Difco Laboratories, Becton Dickinson and Company, Franklin Lakes, NJ, United States). The bacteriocin was purified following the protocol of [Mirkovic et al. (2016)]. Briefly, the cells were removed by centrifugation (4,500 × g for 30 min at 4°C), while the supernatant was saturated up to 40% with ammonium sulfate, and precipitated with stirring for 2 h at 4°C. The precipitate was collected by centrifugation (10,000 × g for 30 min at 4°C) and then dissolved in 5 mL of Milli-Q water containing 0.1% trifluoroacetic acid. The bacteriocin was further purified using reverse-phase high-performance liquid chromatography (HPLC). […] The chromatography was monitored by measuring absorbance at 215 nm. […] Both recombinant peptides and the reaction mixtures of LcnB and PrtP were analyzed using the same reverse-phase chromatography as used for bacteriocin purification (see Section “Bacteriocin LcnB Purification From Lactococcus lactis subsp. lactis BGMN1-501”).

[6] = tested on: LcnB receptor on sensitive BGMN1-596 cells (man-PTS); experiment: Bacteriocin competition assay; assay type: cell-based, Lactococcus lactis subsp. lactis; conditions: 10 μL of 62.5–1,000 μg/mL LcnB^∗ adsorbed 30 min at room temperature, then 50 μL BGMN1-501 culture, overnight 30°C
Method: The possibility of truncated peptide LcnB^∗ to compete with wild type LcnB for binding to its receptor molecule was tested in bacteriocin competition assay. Bacteriocin assay was prepared, as explained above. Before addition of bacteriocin producer, 10 μL of increasing concentrations (62.5–1,000 μg/mL) of LcnB^∗ was added to the wells made in soft agar and left for 30 min at room temperature to be completely adsorbed. After that, 50 μL of fresh BGMN1-501 culture was added to the wells, and incubated overnight at 30°C to produce growth inhibition zones.

| Sequence | cleaved bond (PrtP [1]) | cleaved bond (PrtP [2]) | effect on bacterial growth (interference with glucose import) (BGMN1-596) | bacteriocin activity after incubation with PrtP extract (proteinase PrtP [3]) | bacteriocin activity after incubation with PrtP extract (proteinase PrtP [3]; pH 7) | antimicrobial activity (growth inhibition zone) ([4]; chemically synthesized peptide (Biomatik), 10 μL spotted, up to 1 mg/mL) | antimicrobial activity (growth inhibition zone) ([4]; recombinant peptide (pMAL system, E. coli ER2523), 50–500 μg/mL) | PrtP cleavage site in the peptide (proteinase PrtP [5]) | amount of peptide left after PrtP hydrolysis (proteinase PrtP [5]) | effect of pretreatment on bacteriocin activity of wild type LcnB (competition for the receptor) [6] |
| --- | --- | --- | --- | --- | --- | --- | --- | --- | --- | --- |
| SLQYVMSAGPYTWYKDTRTGKTICKQTIDTASYTFGVMAEGWGKTFH | methionine6-serine7 | methionine6-serine7, major, 3 h | – | – | – | – | – | – | – | – |
| SLQYVMSAGPYTWYKDTRTGKTICKQTIDTASYTFGVMAEGWGKTFH [LcnB, bacteriocin of Lactococcus lactis subsp. lactis BGMN1-501, mature peptide, produced recombinantly in E. coli ER2523] | – | – | did not alter bacterial growth | no activity could be detected | reduced the bacteriocin activity | inactive | strong antimicrobial activity | between sixth and seventh amino acid | drastically reduced | did not influence the latter bacteriocin activity of wild type molecule |
